Data set [1] has as its target T1, Mtb Rv3802 (Mycobacterium tuberculosis, UniProt O53581). The data set is classed as biochemical. Conditions: 100 μM inhibitor, no preincubation time.
Data set [2] has as its target T1, Mtb Rv3802. Briefly: biochemical. In kind it is biochemical.
In data set [3] the target is T2, Mtb Pks13-TE (Mycobacterium tuberculosis, UniProt I6X8D2). Briefly: Initial inhibition screen, Pks13-TE activity assay. The data set is classed as biochemical.
Data set [4] addresses T3, Mtb Ag85C (Mycobacterium tuberculosis, UniProt P9WQN9). Briefly: Ag85C kinact/KI determination. The data set is classed as biochemical.
The target in data set [5] is T3, Mtb Ag85C. Briefly: Initial inhibition screen, Ag85C activity assay. In kind it is biochemical. The following applies: for inhibition level of Ag85C: 100 μM inhibitor, 0 min preincubation, compared to the uninhibited control.
Data set [6] has as its system Mtb strain H37Rv. Conditions: cited from earlier work.
Data set [7] has as its target T2, Mtb Pks13-TE. The data set can be described thus: Pks13-TE reversible covalent inhibition and influence of trehalose. The data set is classed as biochemical.
Data set [8] deals with Rv3802. Conditions: THL to Rv3802, cited from earlier work.
Data set [9] deals with OC[C@H]1O[C@H](O[C@H]2O[C@H](CO)[C@@H](O)[C@H](O)[C@H]2O)[C@H](O)[C@@H](O)[C@@H]1O. Briefly: purified protein, by the assay type. Conditions: other: Pks13-TE, acyl transfer from 4MH to trehalose; pH 7.5; 37.0 °C.
Setting [10] is: 20 nM Rv3802, linear rates from 2 to 6 min, no preincubation.
The mark [11] stands for this setting: read-out: increase in inhibition level of Pks13-TE from 0 to 3 h.
Setting [12] is: read-out: inhibition level of Pks13-TE at 4 h (decreased to).

Like-named read-outs stand apart in the source and are kept apart here.

The source of these data is PMC6128263 (Biochemistry, 2018).

T3 sequence (P9WQN9 46-340): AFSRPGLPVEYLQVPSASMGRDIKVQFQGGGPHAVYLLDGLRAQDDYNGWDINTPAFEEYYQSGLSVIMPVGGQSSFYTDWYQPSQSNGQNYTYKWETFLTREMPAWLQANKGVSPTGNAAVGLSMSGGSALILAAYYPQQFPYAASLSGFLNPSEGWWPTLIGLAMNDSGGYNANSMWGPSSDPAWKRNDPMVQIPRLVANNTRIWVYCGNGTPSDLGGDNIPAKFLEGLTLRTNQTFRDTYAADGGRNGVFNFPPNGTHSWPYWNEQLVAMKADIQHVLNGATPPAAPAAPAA
T1 sequence (O53581 whole entry): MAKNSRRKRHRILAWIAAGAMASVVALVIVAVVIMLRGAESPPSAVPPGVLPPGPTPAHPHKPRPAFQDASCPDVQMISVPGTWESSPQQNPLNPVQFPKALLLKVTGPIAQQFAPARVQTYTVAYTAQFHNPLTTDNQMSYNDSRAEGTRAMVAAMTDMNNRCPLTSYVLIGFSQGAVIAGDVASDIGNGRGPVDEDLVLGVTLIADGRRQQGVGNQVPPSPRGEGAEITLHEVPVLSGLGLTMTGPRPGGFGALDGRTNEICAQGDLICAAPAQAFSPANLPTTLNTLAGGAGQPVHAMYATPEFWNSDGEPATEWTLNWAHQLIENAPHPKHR
T2 sequence (I6X8D2 1451-1733 limits assumed): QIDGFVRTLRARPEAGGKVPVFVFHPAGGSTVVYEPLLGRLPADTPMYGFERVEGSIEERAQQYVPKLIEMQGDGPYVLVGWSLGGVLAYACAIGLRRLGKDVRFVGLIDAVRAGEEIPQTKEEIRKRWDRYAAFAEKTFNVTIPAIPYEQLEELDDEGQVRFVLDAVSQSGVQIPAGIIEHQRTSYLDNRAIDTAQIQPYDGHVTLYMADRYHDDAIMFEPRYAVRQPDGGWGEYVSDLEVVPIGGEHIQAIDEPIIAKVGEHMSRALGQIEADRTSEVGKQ

As to `CCCCCCCCCCCC(CC1OC(=O)C1CCCCCC)OC(=O)C(CC(C)C)NC=O` (single isomer, unassigned; ent1) [ent1-THL], the “inhibition level of Rv3802” value in data set [1] (100 µM) is on record as 85.1 ± 1.4%. In [2] (setting [10]), this compound displayed an EC50 of 15.9 ± 1 µM.

Take `CCCCCCCCCCC[C@H](C[C@H]1OC(=O)[C@@H]1CCCCCC)OC(=O)[C@H](CC(C)C)NC=O` (single isomer, unassigned; ent2) [ent2-THL]: in data set [1], the “inhibition level of Rv3802” value is given as 83.9 ± 0.6%. Further, the Pks13-TE activity remaining in [3] (100 μM inhibitor, 1 h preincubation, compared to uninhibited reactions) was ~ 30%. In [2] (setting [10]), the EC50 turned out to be 15.9 ± 1.1 µM.

In the case of `CCCCCCCCCCCC(CC1OC(=O)C1CCCCCC)OC(=O)C(CC(C)C)NC=O` (single isomer, unassigned; ent3) [ent3-THL], the “inhibition level of Rv3802” value in [1] (100 µM) was found to be 83.0 ± 2.9%. In data set [2] (setting [10]), it took 16.6 ± 0.9 µM to reach a half-maximal effect (EC50).

As for `CCCCCCCCCCCC(CC1OC(=O)C1CCCCCC)OC(=O)C(CC(C)C)NC=O` (single isomer, unassigned; ent4) [ent4-THL], the “inhibition level of Rv3802” value in data set [1] (100 µM) is given as 79.0 ± 1.7%. In [2] (setting [10]), this compound yielded an EC50 of 62.1 ± 4.1 µM.

On to `CCCCCCCCCCC[C@H](C[C@@H]1OC(=O)[C@H]1CCCCCC)OC(=O)[C@@H](CC(C)C)NC=O` [2′,5-epi-THL], for which the “inhibition level of Rv3802” value in [1] was “completely inhibit”. Further, it took 0.0287 ± 0.0031 µM to reach a half-maximal effect in data set [2] (setting [10]) (EC50).

With `CCCCCCCCCCC[C@@H](C[C@@H]1OC(=O)[C@H]1CCCCCC)OC(=O)[C@@H](CC(C)C)NC=O` [2′-epi-THL], the “inhibition level of Rv3802” value in data set [1] is “completely inhibit”. In data set [4] (Ag85C), the “fold lower binding affinity (KI) compared to THL” value was ~ 4.5 fold and the “fold lower kinact/KI value compared to THL” value is ~ 4 fold. Also, in [4] (Ag85C, inhibitor 300 to 12.5 μM, 40 min progress curves), the kinact/KI is 1.1 ± 0.3 × 10^−3 μM^−1 min^−1. Moreover, the EC50 in [2] (setting [10]) was 0.0092 ± 0.0005 µM. For the same compound, the “inhibition level of Ag85C” value in data set [5] is on record as 35.8 ± 2.2%.

On to `CCCCCCCCCCC[C@H](C[C@@H]1OC(=O)[C@H]1CCCCCC)OC(=O)[C@H](CC(C)C)NC=O` [5-epi-THL], for which, in [1], the “inhibition level of Rv3802” value is “completely inhibit”. In addition, the half-maximal effective concentration (EC50) in data set [2] (setting [10]) stood at 0.0126 ± 0.0012 µM. In addition, the “inhibition level of Ag85C” value in data set [5] was 12.3 ± 2.6%.

Regarding `CCCCCCCCCCC[C@@H](C[C@@H]1OC(=O)[C@H]1CCCCCC)OC(=O)[C@H](CC(C)C)NC=O` [THL, Tetrahydrolipstatin], the “inhibition level of Rv3802” value in data set [1] is listed as “completely inhibit”. The “minimum inhibitory concentration (MIC)” value in data set [6] was ~ 15 μM. The values for the inhibition at 100 µM in data set [3] (read-out: inhibition level of Pks13-TE) and in [5] (read-out: inhibition level of Ag85C) were 50 to 60% and 31.8 ± 5.9%, respectively. The “retention of covalent coupling with THL, fold longer than Rv3802” value in data set [7] (Pks13-TE versus Rv3802) is on record as “at least 10 fold”. For the same compound, the “slowing of the rate of inactivation of Pks13-TE by presence of trehalose” value in data set [7] (THL inhibition with versus without trehalose) stood at 48 ± 6.7%. Further, the inhibition at 12.5 µM was determined as 62.3 ± 5% in [7] (setting [11]) and 15.2 ± 1.4% in data set [7] (setting [12]). In addition, the inhibition at 25 µM was found to be 61.8 ± 3.5% in data set [7] (setting [11]) and 11.6 ± 0.4% in data set [7] (setting [12]). Further, the inhibition at 50 µM in data set [7] (setting [11]) amounted to 44.1 ± 3.5%; in data set [7] (setting [12]) it was 16 ± 2.1%. In addition, in [4], the kinact/KI was 70 M⁻¹ s⁻¹. Further, the IC50 entry in data set [8] is “low micromolar”. In addition, the Ki in [8] (read-out: apparent KI) was 0.005 µM. Moreover, the EC50 in [2] was 0.0162 ± 0.0008 µM.

As for “Mtb Pks13-TE (Mycobacterium tuberculosis H37Rv)”, in [9], the Km turned out to be 56.6 ± 7.9 mM.
